# The supplement of paper PMC10733146
# Key:
# Experiment in all cases: viability relative to DMSO control (fraction); higher = less drug effect (more viable cells)
# Conditions in all cases: 48 h
# [1] = tested on: primary CLL patient cells (S043)
# Summary of the method: (§1)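 Cells were incubated for 48 h at 37 °C and 5% CO2 in RPMI-1640 with penicillin/streptomycin, L-glutamine and human serum, at 4 × 10^4 cells per well in 384-well plates with compounds pre-plated at five concentrations, one well each. These were primary mononuclear tumour cells, fresh or cryopreserved, Ficoll-isolated from blood or bone marrow or obtained from processed lymph node. Viability values are CellTiter-Glo luminescence relative to the median of 16 inner DMSO wells.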
# [2] = tested on: primary DLBCL patient cells (S076)
# Summary of the method: as §1
# [3] = tested on: primary AML patient cells (S021)
# Summary of the method: as §1
# [4] = tested on: primary AML patient cells (S012)
# Summary of the method: as §1
# [5] = tested on: primary AML patient cells (S011)
# Summary of the method: as §1
# [6] = tested on: primary DLBCL patient cells (S049)
# Summary of the method: as §1
# [7] = tested on: primary AML patient cells (S019)
# Summary of the method: as §1
# [8] = tested on: primary AML patient cells (S025)
# Summary of the method: as §1
# [9] = tested on: primary AML patient cells (S081)
# Summary of the method: as §1
# [10] = tested on: primary AML patient cells (S017)
# Summary of the method: as §1
# [11] = tested on: primary AML patient cells (S006)
# Summary of the method: as §1
# [12] = tested on: primary AML patient cells (S091)
# Summary of the method: as §1
# [13] = tested on: primary AML patient cells (S085)
# Summary of the method: as §1
# [14] = tested on: primary AML patient cells (S089)
# Summary of the method: as §1
# [15] = tested on: primary AML patient cells (S002)
# Summary of the method: as §1
# [16] = tested on: primary AML patient cells (S037)
# Summary of the method: as §1
# [17] = tested on: primary T-NHL patient cells (S058)
# Summary of the method: as §1
structure (smiles),measurement,setting,value
N#CC[C@H](C1CCCC1)n1cc(-c2ncnc3[nH]ccc23)cn1 [Ruxolitinib],viability,[1]; 0.024 µM,0.915
same,viability,[1]; 0.12 µM,1.05
same,viability,[1]; 0.6 µM,0.938
same,viability,[1]; 3 µM,1.05
same,viability,[1]; 15 µM,0.966
same,viability,[2]; 0.024 µM,1.05
same,viability,[2]; 0.12 µM,0.823
same,viability,[2]; 0.6 µM,0.82
same,viability,[2]; 3 µM,0.702
same,viability,[2]; 15 µM,0.719
same,viability,[3]; 0.024 µM,0.919
same,viability,[3]; 0.12 µM,0.801
same,viability,[3]; 0.6 µM,0.844
same,viability,[3]; 3 µM,0.779
same,viability,[3]; 15 µM,0.723
same,viability,[4]; 0.024 µM,0.973
same,viability,[4]; 0.12 µM,0.973
same,viability,[4]; 0.6 µM,1.03
same,viability,[4]; 3 µM,0.951
same,viability,[4]; 15 µM,0.846
same,viability,[5]; 0.024 µM,1.26
same,viability,[5]; 0.12 µM,0.955
same,viability,[5]; 0.6 µM,1.06
same,viability,[5]; 3 µM,0.919
same,viability,[5]; 15 µM,0.743
same,viability,[6]; 0.024 µM,1.03
same,viability,[6]; 0.12 µM,0.91
same,viability,[6]; 0.6 µM,0.994
same,viability,[6]; 3 µM,0.981
same,viability,[6]; 15 µM,1
same,viability,[7]; 0.024 µM,1.09
same,viability,[7]; 0.12 µM,0.873
same,viability,[7]; 0.6 µM,1.03
same,viability,[7]; 3 µM,0.849
same,viability,[7]; 15 µM,0.716
same,viability,[8]; 0.024 µM,0.954
same,viability,[8]; 0.12 µM,0.962
same,viability,[8]; 0.6 µM,1.04
same,viability,[8]; 3 µM,1.02
same,viability,[8]; 15 µM,1.06
same,viability,[9]; 0.024 µM,1.02
same,viability,[9]; 0.12 µM,0.9
same,viability,[9]; 0.6 µM,0.951
same,viability,[9]; 3 µM,0.854
same,viability,[9]; 15 µM,0.817
same,viability,[10]; 0.024 µM,1.05
same,viability,[10]; 0.12 µM,1.03
same,viability,[10]; 0.6 µM,1.09
same,viability,[10]; 3 µM,1
same,viability,[10]; 15 µM,0.907
same,viability,[11]; 0.024 µM,1.04
same,viability,[11]; 0.12 µM,0.921
same,viability,[11]; 0.6 µM,0.963
same,viability,[11]; 3 µM,0.904
same,viability,[11]; 15 µM,0.656
same,viability,[12]; 0.024 µM,0.915
same,viability,[12]; 0.12 µM,1.09
same,viability,[12]; 0.6 µM,0.889
same,viability,[12]; 3 µM,1.12
same,viability,[12]; 15 µM,1.28
same,viability,[13]; 0.024 µM,1.42
same,viability,[13]; 0.12 µM,0.921
same,viability,[13]; 0.6 µM,0.861
same,viability,[13]; 3 µM,0.806
same,viability,[13]; 15 µM,0.651
same,viability,[14]; 0.024 µM,0.658
same,viability,[14]; 0.12 µM,0.804
same,viability,[14]; 0.6 µM,0.603
same,viability,[14]; 3 µM,0.686
same,viability,[14]; 15 µM,0.704
same,viability,[15]; 0.024 µM,0.982
same,viability,[15]; 0.12 µM,0.788
same,viability,[15]; 0.6 µM,0.851
same,viability,[15]; 3 µM,0.707
same,viability,[15]; 15 µM,0.646
same,viability,[16]; 0.024 µM,1.02
same,viability,[16]; 0.12 µM,0.956
same,viability,[16]; 0.6 µM,0.989
same,viability,[16]; 3 µM,0.97
same,viability,[16]; 15 µM,0.965
same,viability,[17]; 0.024 µM,0.983
same,viability,[17]; 0.12 µM,0.887
same,viability,[17]; 0.6 µM,0.924
same,viability,[17]; 3 µM,0.904
same,viability,[17]; 15 µM,0.8
